Key:
22RV1 = test: Growth inhibition IC50, parent line; type: cell-based; details: Homo sapiens; 22RV1 parent line
Description: (§1) PrC cell lines resistant to Estramustine (ESM) were developed as the clinical use of this drug induces significant side effects and drug resistance. The procedure of Mohr was used as described in the Supplementary Information.
(§2) Supplementary Information
(§3) Development of drug resistant cell lines
(§4) Cells were seeded in 3 flasks. […]
(§5) parent cell line was calculated. […]
(§6) to the drug within 2–4 weeks.
(§7) Table S1: IC50 values for parent and Estramustine-resistant prostate cancer cell lines are also multidrug re-sistant to Camptothecin and Docetaxel. Drugs
(§8) Estramustine Camptothecin Docetaxel […]

DU145 = test: Growth inhibition IC50, parent line; type: cell-based; details: Homo sapiens, DU-145
Description: as §1, §2, §3, §4, §5, §6, §7, §8

PC3 = test: Growth inhibition IC50, parent line; type: cell-based; details: Homo sapiens, PC-3
Description: as §1, §2, §3, §4, §5, §6, §7, §8

[1] = tested on: Estramustine-resistant 22RV1; test: Growth inhibition IC50, Estramustine-resistant line; type: cell-based; details: Homo sapiens; 22RV1 Estramustine-resistant line
Description: as §1, §2, §3, §4, §5, §6, §7, §8

[2] = tested on: Estramustine-resistant DU145; test: as above; type: cell-based; details: Homo sapiens, DU-145
Description: as §1, §2, §3, §4, §5, §6, §7, §8

[3] = tested on: Estramustine-resistant PC3; test: as above; type: cell-based; details: Homo sapiens
Description: as §1, §2, §3, §4, §5, §6, §7, §8

PrC cell lines = test: Dose-response of PrC cell lines to ESM; type: cell-based; details: Homo sapiens; range over the PrC cell lines, Figure S2; read-out: IC50s for ESM
Description: as §1
ESM-resistant lines developed following more than 6 months of exposure to the drug.
as §2, §3
Cells were seeded in 3 flasks.
parent cell line was calculated.
as §6

PC3 tumors = test: Xenograft anti-tumor efficacy; type: in vivo, athymic nu/nu mice; details: 5 mg/kg, tail vein, twice weekly for four weeks, n = 5
Description: As described above, a xenograft tumor model was established by injecting mice with PC3 cells. Tumor growth was monitored regularly, and mice were randomized into one of four groups (n = 5 per group) when their tumor volume reached approximately 140 mm^3 (approx. day 16 post-injection) so as to ensure the equal distribution of tumor burden among the groups. The mice were treated twice weekly for four weeks via tail vein injection as follows. Group 1 (Control) received vehicle only; Group 2 (free SN-38) received SN38 at a dose of 5 mg/kg; Group 3 (PDC 10 mg/kg) received PrC10-SN38 at a dose of 10 mg/kg; Group 4 (PDC 20 mg/kg) received PrC10-SN38 at a dose of 20 mg/kg. Tumor volume was measured regularly until day 44 from the initiation of treatment, after which all mice were euthanized via CO2 inhalation.

With `CC[C@@]1(O)C(=O)OCc2c1cc1n(c2=O)Cc2cc3ccccc3nc2-1` [Camptothecin] the IC50 (22RV1) was 7 nM, the IC50 (DU145) was 10 nM and the IC50 (PC3) was 45 nM. It also gave an IC50 [1] of 23 nM, an IC50 [2] of 100 nM and an IC50 [3] of 200 nM.

In the case of `CC(=O)O[C@@]12CO[C@@H]1C[C@H](O)[C@@]1(C)C(=O)[C@H](O)C3=C(C)[C@@H](OC(=O)[C@H](O)[C@@H](NC(=O)OC(C)(C)C)c4ccccc4)C[C@@](O)([C@@H](OC(=O)c4ccccc4)[C@H]21)C3(C)C` [Docetaxel], the IC50 (22RV1) is reported as 3 nM, the IC50 (DU145) is reported as 3 nM and the IC50 (PC3) is reported as 4 nM. It also gave an IC50 [1] of 4 nM, an IC50 [2] of 5 nM and an IC50 [3] of 10 nM.

With `C[C@]12CC[C@@H]3c4ccc(OC(=O)N(CCCl)CCCl)cc4CC[C@H]3[C@@H]1CC[C@@H]2O` [Estramustine] the IC50 (22RV1) was 8000 nM, the IC50 (DU145) was 8000 nM and the IC50 (PC3) was 10000 nM. The IC50 [1] was 30000 nM, the IC50 [2] was 8000 nM and the IC50 [3] was 24000 nM. It also gave an IC50 (PrC cell lines) of 1400 to 1750 nM.

For `CCc1c2c(nc3ccc(O)cc13)-c1cc3c(c(=O)n1C2)COC(=O)[C@]3(O)CC` [free SN-38, SN-38], the tumor growth (PC3 tumors) was “did not inhibit tumor growth”.
